Values of other authors in patent US10446758B2, “Hole transporting material, OLED display panel and electronic device comprising the same” (SHANGHAI TIANMA AM-OLED CO., LTD., priority 2016, dated 2019).

Details: prior art material, background statement

- solubility (in words): good
Compound: CC1(C)c2ccccc2-c2ccc(N(c3ccc4c(c3)C3(c5ccccc5-c5ccccc53)c3ccccc3-4)c3ccccc3-c3ccccc3)cc21
